Patent publication US20240343757A1, “PROCESS FOR THE PREPARATION OF BUDESONIDE 21-PHOSPHATE” (GENETIC S.P.A., priority 2021, published 2024)

Assays:
[1] = background statement; cited from earlier work
[2] = background statement; cited from earlier work; remark: listed apart in the source
[3] = ICH stability testing of budesonide 21-phosphate disodium salt (drug substance); type: physicochemical; details: for assay content by HPLC: specification 95.0-105.0%; for unknown impurities: specification ≤0.1%; for known impurities: specification ≤0.2%
Protocol: Purity was assessed through the HPLC method of the European Pharmacopoeia 1075-Budesonide-related substance. […]

[4] = Stability in aqueous solution at the concentration of use, room temperature; type: physicochemical; details: concentration of use 0.25 mg ml-4.0 mg ml
Protocol: At the concentration of use (0.25 mg ml-4.0 mg ml), it is rapidly soluble and remains stable at room temperature for long periods of time (12 months) without yellowing or precipitating.

Solubility in water = type: physicochemical
Source text: 55, no. 1, pp. 578-582] at physiological pH in the intestinal region.
For this reason, hydroalcoholic solutions are usually prepared dissolving an adequate amount of active substance in solubilizers such as water-soluble alcohols. However, the so prepared solutions have low stability because large amounts of budesonide are decomposed within a short time. Moreover, budesonide formulations have been prepared until now in the form of aqueous suspensions in which the solid phase tends in time to deposit onto the bottom of the container, thus requiring chemical additives or vigorous stirring. These are the reasons that make budesonide not suitable to be delivered by an electric nebulizer.
Budesonide 21-phosphate disodium salt has a much higher water solubility than Budesonide and Budesonide 21-phosphate.

[5] = 40° C. and 75% RH (accelerated), Time 0
[6] = 40° C. and 75% RH (accelerated), Time 3 m
[7] = 40° C. and 75% RH (accelerated), Time 6 m

Molecule: CCCC1OC2CC3C4CCC5=CC(=O)C=CC5(C)C4C(O)CC3(C)C2(C(=O)CO)O1 (stereo not drawn) [Budesonide, 1β,21-dihydroxy-16α, 17α-(butylidenebis(oxy)) pregna-1,4-diene-3,20-dione]
- solubility in alcohols [1]: readily soluble in alcohols
- solubility in water [2]: virtually insoluble in water

Molecule: Budesonide 21-phosphate disodium salt
- assay content by HPLC ([3]; 25° C. and 60% RH, Time 0): 98.22%
- unknown impurities ([3]; 25° C. and 60% RH, Time 0): 0.05%
- known impurities ([3]; 25° C. and 60% RH, Time 0): 0.14%
- assay content by HPLC ([3]; 25° C. and 60% RH, Time 3 m): 98.10%
- unknown impurities ([3]; 25° C. and 60% RH, Time 3 m): 0.05%
- known impurities ([3]; 25° C. and 60% RH, Time 3 m): 0.14%
- assay content by HPLC ([3]; 25° C. and 60% RH, Time 6 m): 98.08%
- unknown impurities ([3]; 25° C. and 60% RH, Time 6 m): 0.05%
- known impurities ([3]; 25° C. and 60% RH, Time 6 m): 0.14%
- assay content by HPLC ([3]; 25° C. and 60% RH, Time 9 m): 97.85%
- unknown impurities ([3]; 25° C. and 60% RH, Time 9 m): 0.08%
- known impurities ([3]; 25° C. and 60% RH, Time 9 m): 0.15%
- assay content by HPLC ([3]; 25° C. and 60% RH, Time 12 m): 97.45%
- unknown impurities ([3]; 25° C. and 60% RH, Time 12 m): 0.08%
- known impurities ([3]; 25° C. and 60% RH, Time 12 m): 0.15%
- assay content by HPLC ([3]; 30° C. and 65% RH, Time 0): 98.22%
- unknown impurities ([3]; 30° C. and 65% RH, Time 0): 0.05%
- known impurities ([3]; 30° C. and 65% RH, Time 0): 0.14%
- assay content by HPLC ([3]; 30° C. and 65% RH, Time 3 m): 97.50%
- unknown impurities ([3]; 30° C. and 65% RH, Time 3 m): 0.15%
- known impurities ([3]; 30° C. and 65% RH, Time 3 m): 0.20%
- assay content by HPLC ([3]; 30° C. and 65% RH, Time 6 m): 97.28%
- unknown impurities ([3]; 30° C. and 65% RH, Time 6 m): 0.15%
- known impurities ([3]; 30° C. and 65% RH, Time 6 m): 0.25%
- assay content by HPLC ([3]; 30° C. and 65% RH, Time 9 m): 97.00%
- unknown impurities ([3]; 30° C. and 65% RH, Time 9 m): 0.40%
- known impurities ([3]; 30° C. and 65% RH, Time 9 m): 0.25%
- assay content by HPLC ([3]; 30° C. and 65% RH, Time 12 m): 94.55%
- unknown impurities ([3]; 30° C. and 65% RH, Time 12 m): 0.40%
- known impurities ([3]; 30° C. and 65% RH, Time 12 m): 0.30%
- assay content by HPLC [3, 5]: 98.22%
- unknown impurities [3, 5]: <0.05%
- known impurities [3, 5]: 0.14%
- assay content by HPLC [3, 6]: 96.50%
- unknown impurities [3, 6]: 2.45%
- known impurities [3, 6]: 0.30%
- assay content by HPLC [3, 7]: 93.28%
- unknown impurities [3, 7]: 2.80%
- known impurities [3, 7]: 0.45%
- period stable in solution without yellowing or precipitating [4]: 12 months
- water solubility (Solubility in water): 110 mg/mL
- water solubility class (Solubility in water; freely soluble = 100-1000 mg/mL): freely soluble in water
